From the NIST ThermoML archive (doi:10.1021/je7006549)

Experiment: mn = molality of the nth substance listed, in mol/kg
Settings: 101 kPa, Liquid

CC1=CC(=O)c2ccccc2C1=O [2-methyl-1,4-naphthalenedione] + Cc1ccccc1
Settings | mass density [kg/m3] | viscosity [mPa·s]
303.15 K, m1 = 0.0454 | 859.6 | 0.5365
303.15 K, m1 = 0.0909 | 861.7 | 0.544
303.15 K, m1 = 0.1365 | 863.8 | 0.5487
303.15 K, m1 = 0.1817 | 865.9 | 0.5572
303.15 K, m1 = 0.227 | 868 | 0.5612
303.15 K, m1 = 0.2728 | 870.1 | 0.5683
308.15 K, m1 = 0.0454 | 855 | 0.5088
308.15 K, m1 = 0.0909 | 857.1 | 0.516
308.15 K, m1 = 0.1365 | 859.2 | 0.5185
308.15 K, m1 = 0.1817 | 861.3 | 0.5246
308.15 K, m1 = 0.227 | 863.4 | 0.5277
308.15 K, m1 = 0.2728 | 865.5 | 0.5346
313.15 K, m1 = 0.0454 | 850 | 0.4814
313.15 K, m1 = 0.0909 | 852.1 | 0.488
313.15 K, m1 = 0.1365 | 854.2 | 0.4902
313.15 K, m1 = 0.1817 | 856.3 | 0.4955
313.15 K, m1 = 0.227 | 858.4 | 0.4987
313.15 K, m1 = 0.2728 | 860.5 | 0.5051
318.15 K, m1 = 0.0454 | 845.6 | 0.4535
318.15 K, m1 = 0.0909 | 847.7 | 0.4582
318.15 K, m1 = 0.1365 | 849.8 | 0.463
318.15 K, m1 = 0.1817 | 851.9 | 0.4677
318.15 K, m1 = 0.227 | 854 | 0.4753
318.15 K, m1 = 0.2728 | 856.1 | 0.4775
323.15 K, m1 = 0.0454 | 840.8 | 0.4321
323.15 K, m1 = 0.0909 | 842.9 | 0.4362
323.15 K, m1 = 0.1365 | 845 | 0.439
323.15 K, m1 = 0.1817 | 847.1 | 0.443
323.15 K, m1 = 0.227 | 849.2 | 0.4459
323.15 K, m1 = 0.2728 | 851.3 | 0.4515
328.15 K, m1 = 0.0454 | 836.1 | 0.413
328.15 K, m1 = 0.0909 | 838.2 | 0.4147
328.15 K, m1 = 0.1365 | 840.3 | 0.4176
328.15 K, m1 = 0.1817 | 842.4 | 0.4208
328.15 K, m1 = 0.227 | 844.5 | 0.4242
328.15 K, m1 = 0.2728 | 846.6 | 0.4303
333.15 K, m1 = 0.0454 | 831.2 | 0.3872
333.15 K, m1 = 0.0909 | 833.3 | 0.3909
333.15 K, m1 = 0.1365 | 835.4 | 0.3927
333.15 K, m1 = 0.1817 | 837.5 | 0.398
333.15 K, m1 = 0.227 | 839.6 | 0.4065
333.15 K, m1 = 0.2728 | 841.7 | 0.4137

Cc1ccccc1C [1,2-dimethylbenzene] + CC1=CC(=O)c2ccccc2C1=O
m2 = 0
Settings | mass density [kg/m3] | viscosity [mPa·s]
303.15 K | 872.1 | 0.7404
308.15 K | 867.7 | 0.69
313.15 K | 864 | 0.6451
318.15 K | 859.7 | 0.6117
323.15 K | 855.5 | 0.5711
328.15 K | 851.2 | 0.5433
333.15 K | 847.1 | 0.5105
